Measured values reported in ChEMBL document CHEMBL1201862, “PubChem BioAssay data set” (2004).
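Five compound concentrations were applied to cells in 96-well plates for 48 hours; endpoints were derived by simple linear interpolation of the resulting dose-response curve. The concentration for 50% growth inhibition is given as GI50.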 Calls of active or inactive are those of the source. Cut-off read from the data, not from the text of the source: active = GI50 up to about 1.1 µM and inactive = higher.

Legend:
Assay in all cases: NCI tumour cell line growth inhibition, 48 h
HCT-116 = system: HCT-116
PC-3 = system: PC-3
MDA-MB-435 = system: MDA-MB-435
IGROV-1 = system: IGROV-1
NCI-H522 = system: NCI-H522
HL-60 = system: HL-60
HOP-62 = system: HOP-62
OVCAR-4 = system: OVCAR-4
SF-295 = system: SF-295
SK-MEL-2 = system: SK-MEL-2
SK-MEL-5 = system: SK-MEL-5
UO-31 = system: UO-31
LOX IMVI = system: LOX IMVI
HOP-92 = system: HOP-92
NCI-H460 = system: NCI-H460
BT-549 = system: BT-549
SF-268 = system: SF-268
SR = system: SR
NCI-H23 = system: NCI-H23
RPMI-8226 = system: RPMI-8226

SMILES	GI50 (HCT-116)	GI50 (PC-3)	GI50 (MDA-MB-435)	GI50 (IGROV-1)	GI50 (NCI-H522)	GI50 (HL-60)	GI50 (HOP-62)	GI50 (OVCAR-4)	GI50 (SF-295)	GI50 (SK-MEL-2)	GI50 (SK-MEL-5)	GI50 (UO-31)	GI50 (LOX IMVI)	GI50 (HOP-92)	GI50 (NCI-H460)	GI50 (BT-549)	GI50 (SF-268)	GI50 (SR)	GI50 (NCI-H23)	GI50 (RPMI-8226)
O=C(Cn1c(C(=O)c2ccccc2)nc2ccccc21)c1ccccc1	> 100 µM (inactive)	> 72.4 µM (inactive)	3.72 µM (inactive)	> 31.6 µM (inactive)	> 58.3 µM (inactive)	7.1 µM (inactive)	26.5 µM (inactive)	96.8 µM (inactive)	67 µM (inactive)	> 100 µM (inactive)	> 100 µM (inactive)	> 56.1 µM (inactive)	> 100 µM (inactive)	70.5 µM (inactive)	> 90.6 µM (inactive)	> 100 µM (inactive)	> 100 µM (inactive)	> 100 µM (inactive)	> 100 µM (inactive)	> 100 µM (inactive)
Nc1cc(S(N)(=O)=O)ccc1SSc1ccc(S(N)(=O)=O)cc1N	> 100 µM (inactive)	> 100 µM (inactive)	> 100 µM (inactive)	> 100 µM (inactive)	> 100 µM (inactive)	> 100 µM (inactive)	> 100 µM (inactive)	> 100 µM (inactive)	> 100 µM (inactive)	> 100 µM (inactive)	> 52.4 µM (inactive)	> 100 µM (inactive)	> 100 µM (inactive)	> 100 µM (inactive)	> 100 µM (inactive)	> 100 µM (inactive)	> 100 µM (inactive)	57 µM (inactive)	> 100 µM (inactive)	> 100 µM (inactive)
COc1cc(C2C=C(c3ccccc3)Oc3cc4c(cc32)OCO4)cc(OC)c1OC (stereo not given)	0.311 µM (active)	0.354 µM (active)	0.188 µM (active)	0.403 µM (active)	0.327 µM (active)	0.521 µM (active)	0.675 µM (active)	6.37 µM (inactive)	0.124 µM (active)	1.91 µM (inactive)	0.502 µM (active)	1.19 µM (inactive)	0.569 µM (active)	15 µM (inactive)	0.436 µM (active)	0.632 µM (active)	3.17 µM (inactive)	0.333 µM (active)	0.436 µM (active)	0.555 µM (active)
COc1cccc(NC(=O)CC(=O)N2N=C(C)C(/N=N\c3ccc(S(=O)(=O)c4ccc(/N=N/C5C(=O)N(C(=O)CC(=O)Nc6cccc(OC)c6)N=C5C)cc4)cc3)C2=O)c1 (stereo not given)	> 100 µM (inactive)	> 100 µM (inactive)	> 100 µM (inactive)	> 100 µM (inactive)	> 100 µM (inactive)	> 100 µM (inactive)	> 100 µM (inactive)	> 100 µM (inactive)	> 100 µM (inactive)	> 100 µM (inactive)	> 100 µM (inactive)	> 100 µM (inactive)	> 100 µM (inactive)	> 100 µM (inactive)	> 100 µM (inactive)	> 100 µM (inactive)	> 100 µM (inactive)	> 100 µM (inactive)	> 100 µM (inactive)	> 100 µM (inactive)
N=C(N)Nc1nc2cc([N+](=O)[O-])ccc2[nH]1	> 100 µM (inactive)	81.1 µM (inactive)	> 100 µM (inactive)	> 100 µM (inactive)	68.5 µM (inactive)	> 100 µM (inactive)	> 100 µM (inactive)	> 100 µM (inactive)	66.2 µM (inactive)	> 100 µM (inactive)	83 µM (inactive)	93.8 µM (inactive)	> 100 µM (inactive)	> 100 µM (inactive)	> 100 µM (inactive)	48.1 µM (inactive)	> 100 µM (inactive)	> 100 µM (inactive)	68.7 µM (inactive)	> 100 µM (inactive)
Oc1ccc(/C=C\c2nnc(/C=C\c3ccc(O)c(O)c3)s2)cc1O	3.26 µM (inactive)	8.97 µM (inactive)	3.78 µM (inactive)	4.09 µM (inactive)	0.875 µM (active)	0.853 µM (active)	8.85 µM (inactive)	4.34 µM (inactive)	12.2 µM (inactive)	11.7 µM (inactive)	3.2 µM (inactive)	3.38 µM (inactive)	5.46 µM (inactive)	5.07 µM (inactive)	4.07 µM (inactive)	7.19 µM (inactive)	2.89 µM (inactive)	1.91 µM (inactive)	3.34 µM (inactive)	1.32 µM (inactive)
Cc1ccc(C2=NN=C3C(c4ccccc4)=Nc4ccccc4N3C2)cc1	5.28 µM (inactive)	11.8 µM (inactive)	16.3 µM (inactive)	13.1 µM (inactive)	2.92 µM (inactive)	1.92 µM (inactive)	9.98 µM (inactive)	3.18 µM (inactive)	12 µM (inactive)	22.6 µM (inactive)	6.31 µM (inactive)	4.1 µM (inactive)	5.65 µM (inactive)	24.1 µM (inactive)	3.56 µM (inactive)	20.6 µM (inactive)	4.49 µM (inactive)	1.56 µM (inactive)	25.7 µM (inactive)	5.98 µM (inactive)
CCCCCCCCCCCC(=O)NCc1ccc(OC(=O)CCCCCCCCCCC)c(OC)c1	65.2 µM (inactive)	15.1 µM (inactive)	> 75.2 µM (inactive)	4.21 µM (inactive)	2.63 µM (inactive)	6.07 µM (inactive)	> 100 µM (inactive)	34.2 µM (inactive)	> 66.4 µM (inactive)	> 82.8 µM (inactive)	> 63 µM (inactive)	> 70 µM (inactive)	5.42 µM (inactive)	> 100 µM (inactive)	> 100 µM (inactive)	> 100 µM (inactive)	> 54.1 µM (inactive)	11.1 µM (inactive)	32.8 µM (inactive)	33.5 µM (inactive)
COc1cccc(C2CC(C)(O)Oc3cc4c(cc32)OCO4)c1O (stereo not given)	10.7 µM (inactive)	27.2 µM (inactive)	2.78 µM (inactive)	27.9 µM (inactive)	20.1 µM (inactive)	31 µM (inactive)	27.4 µM (inactive)	38.8 µM (inactive)	19.4 µM (inactive)	22.8 µM (inactive)	9.31 µM (inactive)	35.6 µM (inactive)	25.3 µM (inactive)	22.4 µM (inactive)	32.6 µM (inactive)	15.3 µM (inactive)	31 µM (inactive)	4.63 µM (inactive)	30.4 µM (inactive)	32.5 µM (inactive)
COc1cc(/C=C/C(=N\NS(=O)(=O)c2ccc(C)cc2)c2sc(NNC(C)=O)nc2C)ccc1O	> 100 µM (inactive)	> 100 µM (inactive)	> 100 µM (inactive)	> 100 µM (inactive)	> 100 µM (inactive)	> 100 µM (inactive)	> 100 µM (inactive)	> 100 µM (inactive)	> 100 µM (inactive)	> 100 µM (inactive)	> 100 µM (inactive)	> 100 µM (inactive)	> 100 µM (inactive)	> 100 µM (inactive)	> 100 µM (inactive)	> 100 µM (inactive)	> 100 µM (inactive)	> 100 µM (inactive)	> 100 µM (inactive)	> 100 µM (inactive)
